{
  "source": "patent US20250367134A1",
  "about": "“PERIPHERALIZATION OF CENTRALLY-ACTING CANNABINOID-1 RECEPTOR ANTAGONISTS BY NANOPARTICLES FOR THE TREATMENT METABOLIC RELATED CONDITIONS” (Yissum Research Development Company of the Hebrew …, priority 2022, published 2025)",
  "key": {"[1]": {"test": "Blood and liver biochemistry and histopathology in DIO mice", "format": "in vivo", "conditions": "1 mg/kg/d ip, 28 days", "experimental": "Serum levels of cholesterol, triglycerides, high-density lipoprotein (HDL), low-density lipoprotein (LDL), and alanine aminotransferase (ALT) were determined by using the Cobas C-111 chemistry analyzer (Roche, Switzerland). Serum insulin and leptin levels were measured by ELISAs (Merck, Cat #EZRMI-13K and #E6082-K, respectively). Fasting blood glucose was measured using a glucometer. Liver tissues were extracted as known, and their triglyceride content was determined using the Cobas C-111 chemistry analyzer (Roche, Switzerland).\nFive μm paraffin-embedded liver sections from 7 animals per group were stained with H&E staining. Liver images were captured with a Zeiss AxioCam ICc5 color camera mounted on a Zeiss Axio Scope.A1 light microscope and taken from 10 random 40× fields of each animal. Lipid staining was conducted using an Oil Red O staining kit (Cat #ab150678; Abcam) according to the manufacturer's protocol. Briefly, at a […] optimal cutting temperature (O.C.T) (Cat #4583; SciGen, Inc., Gardena, CA, USA), compound-embedded liver sections were placed in propylene glycerol, followed by an Oil Red O solution and hematoxylin staining. Stained sections were photographed as mentioned above and positive red areas were quantified in a blinded manner using Image J software with a minimum of 10 random liver sections per mouse."}, "[2]": {"conditions": "10 mg/kg; cited from earlier work"}, "[3]": {"test": "Biodistribution of rimonabant in HFD-fed obese mice after chronic 28-day treatment", "format": "in vivo", "conditions": "18 hr following the last injection, 1 mg/kg ip, 28 days", "experimental": "The NPs were suspended in 1×PBS (15-450 μg/mL), and the free drug was dissolved in 4% DMSO, 1% Tween 80, and saline (0.1-3.0 mg/mL). The mice were euthanized 1-, 4-, and 24-h post-injection. […] The mice were euthanized 18 h following the last injection. Blood was collected, and mice were perfused with 1×PBS (via the left ventricle until the effluent from the right atrium was clear of blood), and the brain, lungs, liver, kidneys, fat, and spleen were harvested.\nTissues and serum samples were processed as follows: Total proteins were precipitated with ice-cold acetone/Tris buffer (50 mM, pH 8.0). Then, the samples were homogenized in ice-cold methanol/Tris buffer (50 mM, pH 8.0, 1:1) containing AM251 10 μg/mL as an internal standard. […] Rimonabant levels in the samples were determined by liquid chromatography/tandem mass spectrometry (LC-MS/MS).\nThe analyses were conducted on a TSQ Quantum Access Max triple quadrupole mass spectrometer (Thermo Scientific, San Jose, CA, USA) coupled with an UHPLC system, which included a Dionex Pump and an Accela Autosampler (Thermo Scientific, San Jose, CA, USA). […] Rimonabant was detected in a positive ion mode using electron spray ionization (ESI) and the multiple reaction monitoring (MRM) mode of acquisition. […]"}, "[4]": {"test": "Multi-parameter metabolic assessment (indirect calorimetry) in DIO mice", "format": "in vivo", "conditions": "1 mg/kg/d ip, 28 days", "experimental": "The metabolic and activity profiles of the mice were assessed using the Promethion High-Definition Behavioral Phenotyping System (Sable Instruments, Inc., Las Vegas, NV, USA). Data acquisition and instrument control were performed using MetaScreen software version 2.2.18.0, and the obtained raw data were processed using ExpeData version 1.8.4, using an analysis script detailing all aspects of the data transformation. Mice with free access to food and water were subjected to a standard 12 h light/12 h dark cycle, which consisted of a 16 h acclimation period, followed by 24 h of sampling. Respiratory gases were measured by using the GA-3 gas analyzer (Sable Systems, Inc., Las Vegas, NV, USA), using a pull-mode, negative-pressure system. Airflow was measured and controlled by FR-8 (Sable Systems, Inc., Las Vegas, NV, USA), with a set flow rate of 2000 mL/min. Water vapor was continuously measured and its dilution effect on O2 and CO2 was mathematically compensated. The effective mass (eff.Mass) was calculated by ANCOVA analysis. The respiratory quotient (RQ) was calculated as the ratio between CO2 produced to O2 consumed, and the total energy expenditure (TEE) was calculated as VO2×(3.815+1.232×RQ), normalized to the effective body mass, and expressed as kcal/h/kg^eff.Mass. Fat oxidation (FO) was calculated as FO=1.69×VO2−1.69×VCO2 and expressed as g/d/kgeff.Mass. Ambulatory activity and position were monitored simultaneously with the collection of the calorimetry data using XYZ beam arrays with a beam spacing of 0.25 cm."}, "[5]": {"conditions": "3 and 10 mg/kg; cited from earlier work"}, "[6]": {"test": "Glucose tolerance (ipGTT) and insulin sensitivity tests (ipIST) in DIO mice", "format": "in vivo", "conditions": "1 mg/kg/d ip, 28 days", "experimental": "Mice that underwent overnight fasting were injected with glucose (1.5 g/kg, ip), followed by a tail blood collection at 0, 15, 30, 45, 60, 90, and 120 minutes. The blood glucose levels were determined using a glucometer. The following day, the mice underwent fasting for 6 h before receiving insulin (0.75 U/kg, ip; Eli Lilly); their blood glucose levels were determined at the same intervals as above. The homeostasis model assessment insulin resistance (HOMA-IR) was calculated as ([μU/mL] X fasting plasma glucose [mmol/L]/22.5). The insulin sensitivity index (ISI) was calculated as 1/(glucose×insulin)×1000, with glucose expressed as mg/dL and insulin as mU/L."}, "serum protein": {"system": "serum protein", "conditions": "cited from earlier work"}, "[7]": {"test": "Chronic treatment of diet-induced obesity (DIO) mice: body weight, body composition, food intake, urine", "format": "in vivo", "conditions": "1 mg/kg/d ip, 28 days", "description": "The experimental protocol used was approved by the Institutional Animal Care and Use Committee of the Hebrew University, which is an AAALAC International accredited institute. To generate diet-induced obesity (DIO; body weight>42 g), six-week-old male C57B1/6JHsd mice (Envigo, Israel) were fed either a high-fat diet (HFD; 60% of calories from fat, 20% from protein, and 20% from carbohydrates; Research Diet, D12492), or a standard diet (STD; 14% fat, 24% protein, 62% carbohydrates; NIH-31 rodent diet) for 16 weeks. […] Body-weight and food intake were measured daily. Total body fat and lean masses were determined by EchoMRI100H™ (Echo Medical Systems LLC, Houston, TX, USA). At 24 h, urine was collected one week before euthanasia using mouse metabolic cages (CCS2000 Chiller System, Hatteras Instruments, NC, USA). Mice were euthanized by cervical dislocation under anesthesia, and the kidneys, brain, liver, fat pads, spleen, lungs, and heart were removed and weighed, and samples were either snap-frozen or fixed in buffered 4% formalin. Trunk blood was collected to determine the biochemical parameters."}, "[8]": {"system": "genes associated with fatty-acid β-oxidation (Cpta1, Acadm, Echs1, Hadh, and Acaa2)", "test": "CB1R antagonism in primary hepatocytes under lipotoxic conditions, qPCR", "format": "cell-based, mouse", "conditions": "1 μM, 24 h, 0.5 mM O:P 2:1", "experimental": "Total RNA of mouse livers or primary hepatocytes was extracted using TRIzol (Invitrogen), followed by DNase I treatment (Invitrogen), and then reverse-transcribed using an Iscript cDNA kit (Bio-Rad). Real-time PCR was conducted using iTaq Universal SYBR Green Supermix (Bio-Rad) and the CFX connect ST system (Bio-Rad). The following Mus musculus genes were detected: Cpta1, Acadm, Echs1, Hadh, and Acaa2; all genes were normalized to β-actin.\nPrimary mouse hepatocytes were isolated by liberase perfusion as previously described. Briefly, the liver of anesthetized mice was first perfused with calcium-free Hanks balanced salt solution supplemented with HEPES and EDTA (HBSS, Biological Industries, Beit HaEmek, Cat #02-018-1A HEPES Cat #03-025-1B), followed by perfused liberase digestion (25 μg/mL liberase in HBSS; Biological Industries, Beit HaEmek, Cat #02-015-1A with 25 mM HEPES). After digestion, the hepatocytes were released by dissociation from the lobes (centrifuged at 50×g for 2 min at 4° C.). The pellet from the first centrifugation of hepatocytes was loaded on a 90% Percoll gradient (Sigma-Aldrich; Cat #GE17-0891-01) and centrifuged at 200×g for 10 min at 4° C. […]"}},
  "note": "Where a name gives a salt, the structure may show the parent alone.",
  "data": [
    {"smiles": "Cc1c(C(=O)NN2CCCCC2)nn(-c2ccc(Cl)cc2Cl)c1-c1ccc(Cl)cc1", "note": "[free rimonabant, N-(piperidin-1-yl)-5-(4-chlorophenyl)-1-(2,4-dichlorophenyl)-4-methyl-1H-pyrazole-3-carboxamide hydrochloride]", "values": [
      {"measurement": "HFD-induced fatty liver (liver weight, hepatic triglyceride content, hepatocyte ballooning, fat accumulation, serum ALT levels)", "setting": "[1]", "result": "completely reversed"},
      {"measurement": "serum leptin levels", "setting": "[1]", "result": "significantly reduced"},
      {"measurement": "depressive-like symptoms in the Forced Swim Test", "setting": "[2]", "result": "did not induce depressive-like symptoms"},
      {"measurement": "levels of rimonabant in the brain", "setting": "[3]", "result": "Comparable low levels"},
      {"measurement": "animal's activity profile", "setting": "[4]", "result": "without affecting"},
      {"measurement": "fat oxidation (FO)", "setting": "[4]", "result": "upregulation"},
      {"measurement": "oxygen consumption (VO2)", "setting": "[4]", "result": "upregulation"},
      {"measurement": "total energy expenditure (TEE)", "setting": "[4]", "result": "upregulation"},
      {"measurement": "despair-like behavior in the Tail Suspension Test", "setting": "[5]", "result": "did not induce despair-like behavior"},
      {"measurement": "HOMA-IR", "setting": "[6]", "result": "reduced"},
      {"measurement": "hyperinsulinemia", "setting": "[6]", "result": "reduced"},
      {"measurement": "insulin sensitivity", "setting": "[6]", "result": "improved"},
      {"measurement": "obesity-induced glucose intolerance", "setting": "[6]", "result": "reversed"},
      {"measurement": "serum protein binding", "setting": "serum protein", "result": "> 98", "unit": "%"},
      {"measurement": "body weight (overweightness)", "setting": "[7]", "result": "significantly reduced"},
      {"measurement": "fat mass (adiposity)", "setting": "[7]", "result": "significantly reduced"},
      {"measurement": "food intake", "setting": "[7]", "result": "without affecting"},
      {"measurement": "lean mass", "setting": "[7]", "result": "increased"},
      {"measurement": "expression levels of genes associated with fatty oxidation", "setting": "[8]", "result": "significantly upregulated"}
    ]}
  ]
}
